Assay results reported in US12187686B2, “BRD4-JAK2 inhibitors” (H. LEE MOFFITT CANCER CENTER AND RESEARCH INSTITUTE, INC., priority 2018, dated 2025).
pEC50, pIC50: −log10 of the molar value. Read-outs that look alike come from different tables or passages of the source. Each block holds one molecule with its values, some of them ahead of it.

Legend:
BRD4 [1] = molecular target: T1, BRD4 (Homo sapiens, UniProt O60885); test: Differential Scanning Fluorimetry (DSF), increased stability of BRD4 upon ligand binding; settings: for BRD4 DSF (ΔTm): Table 3; for ΔTm at 4 µM: 100 μM protein, 4 μM compound and 2% DMSO
Experimental: DSF=Differential Scanning Fluorimetry; provides a measure of the increased stability of BRD4 upon ligand binding The DSF experiment was run at 100 μM protein, 4 μM compound and 2% DMSO.

c-Myc = settings: MM.1S cells; background, literature; cited from earlier work
MM1.S cells = test: Antiproliferative activity in MM1.S cells (sensitive for BRD4 inhibition); type: cell-based; settings: Homo sapiens; for GI50 / pIC50: MM1.S; for GI50: Table 3, read-out: GI50 (MM1S); for pEC50: MM1.S cells (sensitive for BRD4 inhibition)
Experimental: Cellular activity of promising compounds is assessed using MM.1S and MV4-11 AML cells using c-Myc levels as biomarker (6-12 hr treatment) and antiproliferative activity (48-72 hr treatment) as described (Ciceri et al., Dual kinase-bromodomain inhibitors for rationally designed polypharmacology. Nat Chem Biol 2014).

UKE1 cells = test: Growth inhibition of UKE1 cells; type: cell-based
JAK2 = JAK2 (Homo sapiens, UniProt O60674); test: JAK2 inhibition (IC50); type: biochemical
BRD4 [2] = molecular target: T1, BRD4; test: BRD4 inhibition (IC50); type: binding; design: BRD4-1
MV4-11 AML cells = settings: background, literature; read-out: IC50, proliferation of MV4-11 AML cells; cited from earlier work
Mouse microsome = type: in vitro ADME; settings: Table 1
[3] = Table 1, read-out: GI50 (UKE1 cells)
[4] = Table 1, estimated, read-out: Estimated BRD4-1 IC50 (BRD4)
[5] = Table 2, read-out: GI50 (UKE1 cells)

JAK2, sequence (O60674 whole entry): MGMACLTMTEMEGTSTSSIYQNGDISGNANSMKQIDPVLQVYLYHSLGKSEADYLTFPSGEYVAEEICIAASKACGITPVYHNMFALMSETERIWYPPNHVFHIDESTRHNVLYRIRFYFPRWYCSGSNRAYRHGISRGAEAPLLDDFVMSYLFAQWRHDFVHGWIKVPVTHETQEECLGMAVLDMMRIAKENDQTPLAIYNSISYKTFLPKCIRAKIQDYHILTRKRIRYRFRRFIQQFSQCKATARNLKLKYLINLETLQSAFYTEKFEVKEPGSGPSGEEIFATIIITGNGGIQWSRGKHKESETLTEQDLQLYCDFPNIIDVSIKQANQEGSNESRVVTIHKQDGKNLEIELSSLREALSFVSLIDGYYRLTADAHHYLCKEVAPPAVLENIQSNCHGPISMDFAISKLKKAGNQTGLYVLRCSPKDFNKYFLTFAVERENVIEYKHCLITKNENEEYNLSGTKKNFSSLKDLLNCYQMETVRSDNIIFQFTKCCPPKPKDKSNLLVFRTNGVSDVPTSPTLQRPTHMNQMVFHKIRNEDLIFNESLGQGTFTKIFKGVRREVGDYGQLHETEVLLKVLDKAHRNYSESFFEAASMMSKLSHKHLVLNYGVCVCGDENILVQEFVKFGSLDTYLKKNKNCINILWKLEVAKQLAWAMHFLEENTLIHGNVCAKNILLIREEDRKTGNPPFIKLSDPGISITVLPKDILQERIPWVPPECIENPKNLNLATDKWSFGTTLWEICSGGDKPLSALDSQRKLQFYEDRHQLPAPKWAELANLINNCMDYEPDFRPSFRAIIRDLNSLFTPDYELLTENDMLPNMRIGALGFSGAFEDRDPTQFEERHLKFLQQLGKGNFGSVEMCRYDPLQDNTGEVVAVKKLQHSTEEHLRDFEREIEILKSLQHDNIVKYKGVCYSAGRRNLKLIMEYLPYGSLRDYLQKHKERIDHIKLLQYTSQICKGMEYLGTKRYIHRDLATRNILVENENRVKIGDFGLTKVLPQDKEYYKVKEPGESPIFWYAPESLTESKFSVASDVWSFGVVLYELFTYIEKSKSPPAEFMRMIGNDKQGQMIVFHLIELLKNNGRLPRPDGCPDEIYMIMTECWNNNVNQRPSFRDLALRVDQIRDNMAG

Structure (SMILES): Cc1cnc(Nc2ccc(C3CCN(C)CC3)c(F)c2)cc1Nc1cccc(CS(=O)(=O)C(C)(C)C)c1 [SY3-036, N^4-(3-((tert-Butylsulfonyl)methyl)phenyl)-N^2-(3-fluoro-4-(1-methylpiperidin-4-yl)phenyl)-5-methylpyridine-2,4-diamine]
- BRD4 DSF (ΔTm) (BRD4 [1]): 2.9 °C

Structure (SMILES): Cc1cnc(Nc2ccc(N3CCN(C)CC3)cc2)nc1Nc1cccc(S(=O)(=O)NC(C)(C)C)c1 [TG101209]
- downregulation of c-Myc (c-Myc): strong downregulation

Structure (SMILES): Cc1cnc(Nc2ccc(OCCN3CCCC3)cc2)nc1Nc1cccc(S(=O)(=O)NC(C)(C)C)c1 [TG101348]
- downregulation of c-Myc (c-Myc): strong downregulation
- pIC50 (MV4-11 AML cells): 7.10

Structure (SMILES): Cc1cnc(Nc2ccc(C3CCN(C)CC3)c(F)c2)nc1Nc1cccc(CS(=O)(=O)C(C)(C)C)c1 [SR3-167, N^4-(3-((tert-Butylsulfonyl)methyl)phenyl)-N^2-(3-fluoro-4-(1-methylpiperidin-4-yl)phenyl)-5-methylpyrimidine-2,4-diamine]
- ΔTm at 4 µM (BRD4 [1]; Table 1): 9.2 °C
- BRD4 DSF (ΔTm) (BRD4 [1]): 9.2 °C
- pIC50 (MM1.S cells; Table 1): 6.85
- GI50 (MM1.S cells): 140 nM
- GI50 (UKE1 cells; [3]): 210 nM
- GI50 (UKE1 cells; Table 3, read-out: GI50 (UKE1)): 210 nM
- pIC50 (JAK2; Table 1, unit given as nm, read-out: IC50 (JAK2)): 9.06
- pIC50 (JAK2; Table 3, read-out: JAK2 (IC50)): 9.00
- pIC50 (BRD4 [2]; [4]): 6.15
- pIC50 (BRD4 [2]; Table 3, read-out: BRD4 (IC50)): 6.15
- Mouse microsome (Mouse microsome): 28%

Structure (SMILES): Cc1cnc(Nc2ccc(C(=O)NC3CCN(C)CC3)c(F)c2)nc1Nc1cccc(CS(=O)(=O)C(C)(C)C)c1 [SR3-162, 4-((4-((3-((tert-Butylsulfonyl)methyl)phenyl)amino)-5-methylpyrimidin-2-yl)amino)-2-fluoro-N-(1-methylpiperidin-4-yl)benzamide]
- ΔTm at 4 µM (BRD4 [1]; Table 1): 6.9 °C
- BRD4 DSF (ΔTm) (BRD4 [1]): 6.9 °C
- pIC50 (MM1.S cells; Table 1): 6.89
- GI50 (MM1.S cells): 130 nM
- pIC50 (JAK2; Table 3, read-out: JAK2 (IC50)): 8.66

Structure (SMILES): Cc1cnc(Nc2cc(F)c(C3CCN(C)CC3)c(F)c2)nc1Nc1ccc2c(c1)C(S(=O)(=O)C(C)(C)C)CC2 (stereo not shown) [SR5-157, N^4-(3-(tert-Butylsulfonyl)-2,3-dihydro-1H-inden-5-yl)-N^2-(3,5-difluoro-4-(1-methylpiperidin-4-yl)phenyl)-5-methylpyrimidine-2,4-diamine]
- GI50 (MM1.S cells): 700 nM
- GI50 (UKE1 cells; Table 3, read-out: GI50 (UKE1)): 1500 nM

Structure (SMILES): CC[C@@H]1C(=O)N(C)c2cnc(Nc3ccc(C(=O)NC4CCN(C)CC4)cc3OC)nc2N1C1CCCC1 [BI2536]
- downregulation of c-Myc (c-Myc): strong downregulation

Structure (SMILES): Cc1cnc(Nc2ccc(C3CCN(C)CC3)c(F)c2)nc1Nc1ccc2c(c1)C(S(=O)(=O)C(C)(C)C)CC2 (stereo not shown) [SR5-156, N^4-(3-(tert-Butylsulfonyl)-2,3-dihydro-1H-inden-5-yl)-N^2-(3-fluoro-4-(1-methylpiperidin-4-yl)phenyl)-5-methylpyrimidine-2,4-diamine]
- BRD4 DSF (ΔTm) (BRD4 [1]): 8.7 °C
- GI50 (MM1.S cells): 850 nM
- GI50 (UKE1 cells; Table 3, read-out: GI50 (UKE1)): 1440 nM

Further lines, with some results ahead:

- ΔTm at 4 µM (BRD4 [1]; Table 1): 8.4 °C
- BRD4 DSF (ΔTm) (BRD4 [1]): 8.4 °C
- GI50 (MM1.S cells): 710 nM
- pEC50 (MM1.S cells; Table 1): 6.15
- pIC50 (JAK2; Table 1, read-out: IC50 (JAK2)): 8.05
- pIC50 (JAK2; Table 3, read-out: JAK2 (IC50)): 8.10
- pIC50 (BRD4 [2]; [4]): 5.25
- pIC50 (BRD4 [2]; Table 3, read-out: BRD4 (IC50)): 5.25
Structure (SMILES): Cc1cnc(Nc2ccc(N3CCN(C)CC3)c(F)c2)nc1Nc1cccc(CS(=O)(=O)C(C)(C)C)c1 [SR3-159, N^4-(3-((tert-Butylsulfonyl)methyl)phenyl)-N^2-(3-fluoro-4-(4-methylpiperazin-1-yl)phenyl)-5-methylpyrimidine-2,4-diamine]
- GI50 (UKE1 cells; [3]): 440 nM
- GI50 (UKE1 cells; Table 3, read-out: GI50 (UKE1)): 440 nM

- ΔTm at 4 µM (BRD4 [1]; Table 2): 6.6 °C
- pEC50 (MM1.S cells; Table 2): 5.55
Structure (SMILES): Cc1cnc(Nc2cc(F)c(N3CCN(C)CC3)c(F)c2)cc1Nc1ccc(Cl)c(NS(=O)(=O)C(C)(C)C)c1
- GI50 (UKE1 cells; [5]): 5700 nM

- ΔTm at 4 µM (BRD4 [1]; Table 2): 6.9 °C
- pEC50 (MM1.S cells; Table 2): 5.51
Structure (SMILES): Cc1cnc(Nc2ccc(N3CCN(C)CC3)c(F)c2)cc1Nc1ccc(Cl)c(NS(=O)(=O)C(C)(C)C)c1
- GI50 (UKE1 cells; [5]): 4500 nM

- ΔTm at 4 µM (BRD4 [1]; Table 1): 9.8 °C
- BRD4 DSF (ΔTm) (BRD4 [1]): 9.8 °C
- pIC50 (MM1.S cells; Table 1): 6.49
- GI50 (MM1.S cells): 320 nM
- pIC50 (JAK2; Table 3, read-out: JAK2 (IC50)): 8.38
- pIC50 (BRD4 [2]; Table 3, read-out: BRD4 (IC50)): 6.15
- Mouse microsome (Mouse microsome): 22%
Structure (SMILES): Cc1cnc(Nc2ccc(C3CCN(C)CC3)c(F)c2)nc1Nc1ccc(Cl)c(CS(=O)(=O)C(C)(C)C)c1 [SR3-169, N^4-(3-((tert-Butylsulfonyl)methyl)-4-chlorophenyl)-N^2-(3-fluoro-4-(1-methylpiperidin-4-yl)phenyl)-5-methylpyrimidine-2,4-diamine]
- GI50 (UKE1 cells; [3]): 400 nM
- GI50 (UKE1 cells; Table 3, read-out: GI50 (UKE1)): 400 nM

- BRD4 DSF (ΔTm) (BRD4 [1]): 2.5 °C
Structure (SMILES): Cc1cnc(Nc2ccc(C3CCN(C)CC3)cc2)cc1Nc1cccc(CS(=O)(=O)C(C)(C)C)c1 [SY3-032, N^4-(3-((tert-Butylsulfonyl)methyl)phenyl)-5-methyl-N^2-(4-(1-methylpiperidin-4-yl)phenyl)pyridine-2,4-diamine]

- BRD4 DSF (ΔTm) (BRD4 [1]): 7.0 °C
- GI50 (MM1.S cells): 2300 nM
Structure (SMILES): Cc1cnc(Nc2cc(F)c(C3CCN(C)CC3)cn2)nc1Nc1ccc2c(c1)C(S(=O)(=O)C(C)(C)C)CC2 (stereo not shown) [SR5-158, N^4-(3-(tert-Butylsulfonyl)-2,3-dihydro-1H-inden-5-yl)-N^2-(4-fluoro-5-(1-methylpiperidin-4-yl)pyridin-2-yl)-5-methylpyrimidine-2,4-diamine]
- GI50 (UKE1 cells; Table 3, read-out: GI50 (UKE1)): 3640 nM
